Experimental findings from patent US20250082557A1, “COMPOSITION FOR ENHANCING SKIN VITALITY CONTAINING A THYMOL ESTER-BASED COMPOUND” (Amorepacific Corporation, priority 2023, published 2025) are described below.

One test deals with skin fibroblasts. In words: Mitochondrial activity: maximal oxygen consumption rate (OCR), Seahorse XF cell mitochondrial stress test. The class given is cell-based. From the text: Specifically, the Seahorse XF Pro analyzer equipment from Agilent was used, and the mitochondrial activity (ATP energy production efficiency), i.e., the maximal oxygen consumption rate (OCR), was observed according to the standard protocol provided with the Seahorse XF cell mitochondrial stress measurement kit provided by the company (FIG. 2).

Test [1] relates to mitophagy marker genes (VDAC, Parkin, PINK). The test is described as follows: Expression of mitophagy marker genes (VDAC, Parkin, PINK) by RT-PCR. Format: cell-based. Conditions: fibroblasts, hydrocortisone 10 μM and MELASOLV 5.5 μg/ml for 24 hours; FIGS. 3 to 5. How it is done: Fibroblasts were seeded in 10 cm^2 cell culture dishes at a concentration of 3×10^5 cells/dish and cultured in 10 ml of minimum essential medium eagle (MEM) medium containing 10% fetal bovine serum (FBS) and 1% penicillin streptomycin. After 24 hours, the cells reached approximately 70%, and the cells were treated with (1) DMSO (control), (2) hydrocortisone (10 μM) alone, or (3) hydrocortisone (10 μM) and MELASOLV™ (5.5 μg/ml) for 24 hours.
RNA was extracted with easy-BLUE (INTRON) reagent. cDNA samples were generated from 0.5 μg of RNA using PrimeScript RT reagent Kit. The generated cDNA was amplified using ACCUPOWER™ PCR Premix. The PCR products were further analyzed using PCR Thermal Cycler Dice.
It was confirmed through a […] in the expression of mitophagy marker genes (VDAC, Parkin, PINK) whether it contributes to the activation of mitophagy which removes unnecessary elements from mitochondria.

[2] abbreviates: hydrocortisone 10 uM 24 hours, MELASOLV 5 ppm 24 hours, FIG. 2.

As to `C[C@]12CCC(=O)C=C1CC[C@@H]1[C@@H]2[C@@H](O)C[C@@]2(C)[C@H]1CC[C@]2(O)C(=O)CO` [hydrocortisone, reference compound], the “cell respiration rate (OCR) compared to the control group (Ctrl)” value in the test with skin fibroblasts (hydrocortisone 10 uM 24 hours alone (stress-induced condition)) was “reduced”.

For `COc1cc(/C=C/C(=O)Oc2cc(C)ccc2C(C)C)cc(OC)c1OC` [MELASOLV™, (5-methyl-2-propan-2-ylphenyl) (E)-3-(3,4,5-trimethoxyphenyl) prop-2-enoate], in the test with skin fibroblasts (setting [2]), the “maximal respiration (OCR) compared to the control group not treated with anything” value is listed as “increased higher” and the “maximal respiration (maximal oxygen consumption rate, OCR) compared to treatment with only hydrocortisone” value was “statistically significantly higher”. Further, in the test with skin fibroblasts (hydrocortisone 10 uM, MELASOLV 5 ppm 24 hours), the “cell respiration rate (OCR) reduced by hydrocortisone, effect of treatment” value is listed as “recovered”. For the same compound, the “expression of mitophagy genes (VDAC, Parkin, PINK)” value in test [1] is on record as “increased”.
